From ChEMBL document CHEMBL4483862, “Open-source discovery of chemical leads for next-generation chemoprotective antimalarials” (2018)

Tested on: Plasmodium berghei
Test: Luciferase/luciferin-expressing antifolate-resistant parasites were used to infect a culture of HepG2 cells that were pre-incubated with compounds. Infected hepatocytes emit light due to the luciferase reaction. Assay results are presented as the percent inhibition of light emission compared to control. […]
Assay type: functional
Conditions: sporozoite; for IC90: read-out: LUCIFERASE INFECTION ASSAY - IC90
[1] = PBLUC_HILL_SLOPE 2.91, PBLUC_R_SQUARED 0.109, read-out: LUCIFERASE INFECTION ASSAY - IC50

| Structure (SMILES) | IC90 | further results |
| --- | --- | --- |
| NCCCNc1ccnc2cc(Cl)ccc12 | > 14 µM | IC50 (PBLUC_HILL_SLOPE 2.91, PBLUC_R_SQUARED 0.438, read-out: LUCIFERASE INFECTION ASSAY - IC50): 8.74 µM |
| CCc1c(C)[nH]c2c(-c3ccc(Cl)cc3)c(C)nn2c1=O | > 10.9 µM | IC50 (PBLUC_HILL_SLOPE 2.9, PBLUC_R_SQUARED 0.859, read-out: LUCIFERASE INFECTION ASSAY - IC50): 6.48 µM |
| Cc1cc(C(=O)NC2CC2)c(C)n1-c1ccc(C(C)C)cc1 | > 10 µM | IC50 (PBLUC_HILL_SLOPE 2.98, PBLUC_R_SQUARED 0.567, read-out: LUCIFERASE INFECTION ASSAY - IC50): 6.28 µM |
| CSc1[nH]nc(-c2cc(C(C)(C)C)oc2C)c1C#N | > 12 µM | IC50 (PBLUC_HILL_SLOPE 2.91, PBLUC_R_SQUARED 0.01, read-out: LUCIFERASE INFECTION ASSAY - IC50): 8.62 µM |
| Cc1c(-c2ccccc2)sc2ncnc(NCC(=O)N3CCCC3)c12 | > 10 µM | IC50 (PBLUC_HILL_SLOPE 2.95, PBLUC_R_SQUARED 0.129, read-out: LUCIFERASE INFECTION ASSAY - IC50): 5.82 µM |
| CC(C)(C)Nc1ccn2nc(-c3ccco3)cc2n1 | > 12.9 µM | IC50 (PBLUC_HILL_SLOPE 2.89, PBLUC_R_SQUARED 0.538, read-out: LUCIFERASE INFECTION ASSAY - IC50): 8.49 µM |
| Cc1cc(=O)nc(N/N=C/c2cc(C)n(-c3ccccc3Cl)c2C)[nH]1 | > 10 µM | IC50 (PBLUC_HILL_SLOPE 2.91, PBLUC_R_SQUARED 0.512, read-out: LUCIFERASE INFECTION ASSAY - IC50): 9.21 µM |
| O=C(NCc1ccccc1)C(=Cc1ccc(-c2ccccc2)cc1)C(=O)NCc1ccccc1 | 9.48 µM | IC50 (PBLUC_HILL_SLOPE 2.95, PBLUC_R_SQUARED 0.782, read-out: LUCIFERASE INFECTION ASSAY - IC50): 4.51 µM |
| COc1ccccc1C(=O)Nc1c(C#N)cnn1-c1nc(C)cc(C)n1 | 7.94 µM | IC50 (PBLUC_HILL_SLOPE 2.98, PBLUC_R_SQUARED 0.592, read-out: LUCIFERASE INFECTION ASSAY - IC50): 3.8 µM |
| CCOc1ccc(-n2c(C)cc(/C=C(\C#N)c3ccccn3)c2C)cc1 | > 10 µM | IC50 (PBLUC_HILL_SLOPE 2.96, PBLUC_R_SQUARED 0.363, read-out: LUCIFERASE INFECTION ASSAY - IC50): 8.53 µM |
| Cc1nc2ccc(I)cn2c1/C=N/Nc1ccccn1 | > 10 µM | IC50 (PBLUC_HILL_SLOPE 2.99, PBLUC_R_SQUARED 0.247, read-out: LUCIFERASE INFECTION ASSAY - IC50): 6.77 µM |
| COc1cc2c(cc1OC)C(c1ccccc1Cl)N(C(=O)c1sc3ccccc3c1Cl)CC2 (stereo not drawn) | > 6.62 µM | IC50 (PBLUC_HILL_SLOPE 2.93, PBLUC_R_SQUARED 0.186, read-out: LUCIFERASE INFECTION ASSAY - IC50): 4.9 µM |
| CC(C)(C)c1ccc(/C=C2\CCc3c2nc2ccccc2c3C(=O)OCC(=O)NNC(=O)c2ccccc2F)cc1 | 5.46 µM | IC50 (PBLUC_HILL_SLOPE 2.93, PBLUC_R_SQUARED 0.289, read-out: LUCIFERASE INFECTION ASSAY - IC50): 2.58 µM |
| CN(C(=O)CN1C(=O)NC(c2ccccc2)(c2ccccc2)C1=O)C1CCCc2ccccc21 (stereo not drawn) | > 10 µM | IC50 (PBLUC_HILL_SLOPE 2.94, PBLUC_R_SQUARED 0.848, read-out: LUCIFERASE INFECTION ASSAY - IC50): 5.62 µM |
| O=C(NC1CCCC1)c1ccc(-c2cn3c(-c4ccc(C(=O)NC5CC5)cc4)cnc3cn2)cc1 | > 7.09 µM | IC50 (PBLUC_HILL_SLOPE 2.95, PBLUC_R_SQUARED 0.52, read-out: LUCIFERASE INFECTION ASSAY - IC50): 4.87 µM |
| N=C(Cc1cccs1)NOC(=O)Nc1cc(Cl)cc(Cl)c1 | > 9.59 µM | IC50 (PBLUC_HILL_SLOPE 2.97, PBLUC_R_SQUARED 0.445, read-out: LUCIFERASE INFECTION ASSAY - IC50): 6.76 µM |
| COc1cc(OC)c(C(=O)NC(C)C23CC4CC(CC(C4)C2)C3)cc1OC (stereo not drawn) | 9.64 µM | IC50 (PBLUC_HILL_SLOPE 2.98, PBLUC_R_SQUARED 0.335, read-out: LUCIFERASE INFECTION ASSAY - IC50): 4.61 µM |

| Structure (SMILES) | IC90 | further results |
| --- | --- | --- |
| CCOC(=O)C1CCCN(Cn2nc(-c3ccc(Br)cc3)n(C3CCCCC3)c2=S)C1 (stereo not drawn) | > 10 µM | IC50 [1]: 5.86 µM |
| CNc1nc2cnc(Nc3cc(C(F)(F)F)ccc3F)cc2n1-c1ccccc1 | > 10 µM | IC50 (PBLUC_HILL_SLOPE 2.9, PBLUC_R_SQUARED 0.508, read-out: LUCIFERASE INFECTION ASSAY - IC50): 6.14 µM |
| Cc1nc2ccccc2n1CCC(=O)Nc1ccc2ccccc2c1 | > 10 µM | IC50 (PBLUC_HILL_SLOPE 2.97, PBLUC_R_SQUARED 0.444, read-out: LUCIFERASE INFECTION ASSAY - IC50): 7.73 µM |
| CCCc1cc(NCCN(C)C)n2ncc(-c3ccccc3)c2n1 | > 10.2 µM | IC50 (PBLUC_HILL_SLOPE 2.98, PBLUC_R_SQUARED 0.437, read-out: LUCIFERASE INFECTION ASSAY - IC50): 4.93 µM |
| CN(C)c1ccc(S(N)(=O)=O)cc1NC(=O)Cc1ccc(-c2ccccc2)cc1 | > 10 µM | IC50 (PBLUC_HILL_SLOPE 2.92, PBLUC_R_SQUARED 0.577, read-out: LUCIFERASE INFECTION ASSAY - IC50): 5.33 µM |
| COCCCn1c(-c2ccc(C(C)(C)C)cc2)n[nH]c1=S | > 10.8 µM | IC50 (PBLUC_HILL_SLOPE 2.97, PBLUC_R_SQUARED 0.207, read-out: LUCIFERASE INFECTION ASSAY - IC50): 6.76 µM |
| c1ccn2c(Sc3ncnc4sc5c(c34)CCC5)nnc2c1 | > 10 µM | IC50 (PBLUC_HILL_SLOPE 2.99, PBLUC_R_SQUARED 0.206, read-out: LUCIFERASE INFECTION ASSAY - IC50): 4.93 µM |
| CCCc1cc(C(=O)Nc2ccc(OC(F)F)cc2)sc1C | > 10 µM | IC50 (PBLUC_HILL_SLOPE 2.93, PBLUC_R_SQUARED 0.424, read-out: LUCIFERASE INFECTION ASSAY - IC50): 8.81 µM |
| c1ccc(-c2nc3sccn3c2CSc2nnnn2C2CCCC2)cc1 | > 10 µM | IC50 (PBLUC_HILL_SLOPE 2.99, PBLUC_R_SQUARED 0.0258, read-out: LUCIFERASE INFECTION ASSAY - IC50): 8.01 µM |
| CCN(CC)S(=O)(=O)c1ccc(N2CCOCC2)c(NC(=O)c2cc(-c3cc(OC)c(OC)c(OC)c3)nc3ccccc23)c1 | 8.54 µM | IC50 (PBLUC_HILL_SLOPE 2.9, PBLUC_R_SQUARED 0.79, read-out: LUCIFERASE INFECTION ASSAY - IC50): 4.01 µM |
| O=C(Nc1cccc(CNc2ccnc3cc(Cl)ccc23)c1)C1CC1 | > 10 µM | IC50 (PBLUC_HILL_SLOPE 2.98, PBLUC_R_SQUARED 0.123, read-out: LUCIFERASE INFECTION ASSAY - IC50): 5.8 µM |
| CN(C)c1cccc(-c2cnc3cnc(-c4ccc(C(=O)NC5CC5)cc4)cn23)c1 | > 8.3 µM | IC50 (PBLUC_HILL_SLOPE 2.95, PBLUC_R_SQUARED 0.0505, read-out: LUCIFERASE INFECTION ASSAY - IC50): 7.62 µM |
| O=S(=O)(c1ccccc1)c1nc(/C=C/c2ccccc2)oc1NCc1ccco1 | > 10 µM | IC50 (PBLUC_HILL_SLOPE 2.89, PBLUC_R_SQUARED 0.0298, read-out: LUCIFERASE INFECTION ASSAY - IC50): 5.62 µM |
| COc1ccc(CCN(C)c2ccc(S(=O)(=O)N(C(C)C)C(C)C)cn2)cc1OC | > 10 µM | IC50 [1]: 5.86 µM |
| Cc1cccc(C)c1NC(=O)Nc1cccn(Cc2ccc(Cl)cc2)c1=O | > 8.64 µM | IC50 (PBLUC_HILL_SLOPE 2.91, PBLUC_R_SQUARED 0.157, read-out: LUCIFERASE INFECTION ASSAY - IC50): 7.92 µM |
| CN(Cc1c(F)cccc1Cl)C(=O)COc1ccc2[nH]c3ccccc3c(=O)c2c1 | 1.11 µM | IC50 (PBLUC_HILL_SLOPE 2.98, PBLUC_R_SQUARED 0.795, read-out: LUCIFERASE INFECTION ASSAY - IC50): 0.53 µM |
| O=C(NNc1cccc(F)n1)C(F)(F)F | 0.37 µM | IC50 (PBLUC_HILL_SLOPE 2.9, PBLUC_R_SQUARED 0.705, read-out: LUCIFERASE INFECTION ASSAY - IC50): 0.174 µM |
